Test results from publication PMC11408249, “Non-invasive in vivo imaging of changes in Collagen III turnover in myocardial fibrosis” (npj Imaging, 2024).

Target: T1, COL3 (Mus musculus, UniProt P08121)
T1 construct: from tissue; host or cells: infarcted left-ventricular myocardium of female CD1 mice, in vivo
T1 sequence (P08121 155-1219 limits assumed): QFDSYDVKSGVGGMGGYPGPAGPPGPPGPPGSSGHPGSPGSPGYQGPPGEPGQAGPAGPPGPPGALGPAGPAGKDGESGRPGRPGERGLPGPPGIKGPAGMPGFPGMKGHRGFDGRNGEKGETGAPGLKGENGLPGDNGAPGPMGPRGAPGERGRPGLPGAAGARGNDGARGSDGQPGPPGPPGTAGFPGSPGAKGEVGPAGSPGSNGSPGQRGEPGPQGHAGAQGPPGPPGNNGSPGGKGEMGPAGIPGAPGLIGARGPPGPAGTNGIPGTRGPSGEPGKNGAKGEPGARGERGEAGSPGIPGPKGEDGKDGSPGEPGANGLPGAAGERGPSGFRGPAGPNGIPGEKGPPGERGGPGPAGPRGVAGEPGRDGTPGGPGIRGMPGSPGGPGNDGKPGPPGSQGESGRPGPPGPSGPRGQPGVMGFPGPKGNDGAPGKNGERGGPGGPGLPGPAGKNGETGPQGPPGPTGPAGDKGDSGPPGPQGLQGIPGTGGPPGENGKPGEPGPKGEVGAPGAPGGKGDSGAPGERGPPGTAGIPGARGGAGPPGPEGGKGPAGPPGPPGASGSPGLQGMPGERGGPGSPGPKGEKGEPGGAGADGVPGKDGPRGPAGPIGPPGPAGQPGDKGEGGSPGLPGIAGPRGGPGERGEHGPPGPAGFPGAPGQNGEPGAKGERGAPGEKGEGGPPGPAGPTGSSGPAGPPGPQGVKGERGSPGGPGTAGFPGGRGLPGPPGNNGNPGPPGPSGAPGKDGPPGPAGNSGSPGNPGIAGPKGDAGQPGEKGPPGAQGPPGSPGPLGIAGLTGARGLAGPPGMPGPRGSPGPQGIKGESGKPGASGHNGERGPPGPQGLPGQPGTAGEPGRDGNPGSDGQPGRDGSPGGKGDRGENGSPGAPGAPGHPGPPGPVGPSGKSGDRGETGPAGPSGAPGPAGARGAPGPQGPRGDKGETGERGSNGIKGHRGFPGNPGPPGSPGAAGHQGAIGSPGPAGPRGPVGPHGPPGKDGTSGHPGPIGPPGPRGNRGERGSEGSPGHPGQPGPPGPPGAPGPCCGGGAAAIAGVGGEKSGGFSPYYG
Test: In vivo MRI of the aortic wall in a murine model of vascular remodelling
Settings: ApoE−/− mice after aortic injury and 12 weeks high-fat diet, i.v. 0.2 mmol/kg, LGE MRI at 3 T up to 2 h post-injection
Description: Male ApoE^−/− mice were bred in-house and underwent surgery at 8–10 weeks of age (n = 6). Mice were anesthetised with 4% isoflurane mixed with 1% medical oxygen and anaesthesia was maintained at 2% during the surgery as previously reported. Briefly, mice underwent a laparotomy to expose the abdominal aorta, renal and iliac arteries. Two ligatures were inserted around the aorta (surgical silk, size 4–0, Aragó, Zaragoza, Spain), the first below the renal arteries and the second above the iliac bifurcation. A 30 G needle was introduced into the abdominal aorta at the level of the iliac bifurcation, via an aortic puncture. 1 mL of saline was infused into the aorta in three boluses. Finally, the needle was removed, and the puncture was repaired. The muscle and skin incisions were sutured (5-0 Vicryl, Ethicon Inc, Somerville, NJ), and the animals were allowed to recover. Mice were switched to a high-fat diet (HFD) containing 21% fat from lard and 0.15% (wt/wt) cholesterol (Special Diets Services, Witham, United Kingdom), on day 2 post-surgery for 12 weeks prior to the imaging experiments.
Anaesthesia was induced with 4% and maintained with 1–2% isoflurane during the MRI experiments. Mice (n = 3 per group) were placed supine on a single-loop surface coil (diameter = 47 mm) and the abdominal aorta was imaged up to 2 h post-injection of the monomeric (i.v. 0.2 mmol/kg, 0.2 mmol/kg Gd), the next day with the corresponding tetrameric collagen-binding probe (i.v 0.2 mmol/kg, 0.8 mmol/kg Gd) and the 3rd day using the scrambled probes (n = 2–3 per probe; i.v. 0.2 mmol/kg). This timeline ensures complete washout of one probe from the tissue before the administration of another probe. […]

Ac-C-RDKKVAEQS [[Gd-DOTAMA]4-SccCBP1, scrambled tetrameric Gd probe (Ac-C-…), negative control]
signal enhancement of the remodelled aortic wall (in words): No signal enhancement

Ac-C-TEFPLRMRDWLKN [[Gd-DOTAMA]4-CBP2, tetrameric probe: tri-lysine scaffold bearing four Gd-DOTAMA units conjugated at the N-terminus of CBP2]
signal enhancement of the remodelled aortic wall (in words): stronger enhancement at 60 min compared with corresponding monomeric probes
